Source: PMC9501633, “Synthesis, Characterisation and Mechanism of Action of Anticancer 3-Fluoroazetidin-2-ones” (Pharmaceuticals, 2022)

Assays:
Experiment in all cases: AlamarBlue cell viability assay
Type in all cases: cell-based
[1] = system: MDA-MB-231 cells; details: Homo sapiens, MDA-MB-231, 72 h
Description: The potent 3-fluoro-β-lactam compound 33 synthesised was also evaluated in the triple-negative MDA-MB-231 cell line which lacks expression of the estrogen and progesterone receptors (ER/PR) and the HER2 receptor. […]. Compound 32 was also evaluated in the triple-negative breast cancer cell line Hs578T and its isogenic subclone Hs578T(i)8 (Figure 4C). Hs578Ts(i)8 cells have 2.5-fold more migratory capacity and 3-fold more invasive capacity through the extracellular matrix than the parental cell line (Hs578T) and have 30% more CD44+/CD24-/low cells and in vivo proliferation. […]. […] Cell proliferation for MCF-7 cells was analysed with the AlamarBlue assay (Invitrogen Corp.) as previously described by us. […] Fluorescence results were obtained with a 96-well fluorimeter with excitation at 530 nm and emission at 590 nm with results recorded as percentage viability relative to vehicle control (100%). […]
(§1) Figure 4 Antiproliferative activity of 3-fluoro β-lactams on MCF-7, MDA-MB-231, Hs578T and Hs578T isogenic subclone Hs578T(i)8 breast cancer cells and non-tumourigenic HEK-293T cells. […] Cell viability was expressed as a percentage of vehicle control (ethanol 1% (v/v))-treated cells. […] Cell viability was expressed as a percentage of vehicle control (ethanol 1% (v/v))-treated cells and was measured by AlamarBlue assay (average of three independent experiments). […]

[2] = system: Hs578T cells; details: Homo sapiens, Hs-578T
Description: (§2) The potent 3-fluoro-β-lactam compound 33 synthesised was also evaluated in the triple-negative MDA-MB-231 cell line which lacks expression of the estrogen and progesterone receptors (ER/PR) and the HER2 receptor. […]. Compound 32 was also evaluated in the triple-negative breast cancer cell line Hs578T and its isogenic subclone Hs578T(i)8 (Figure 4C). Hs578Ts(i)8 cells have 2.5-fold more migratory capacity and 3-fold more invasive capacity through the extracellular matrix than the parental cell line (Hs578T) and have 30% more CD44+/CD24-/low cells and in vivo proliferation. […]. The human breast carcinoma cell lines MCF-7 and MDA-MB-231 were purchased from the European Collection of Animal Cell Cultures (ECACC, Salisbury, UK). The SW-480 cells were a kind gift from Dr. Brian Flood, School of Biochemistry and Immunology, Trinity College Dublin. The human breast tumour cell line MCF-7 was cultured in Eagles minimum essential medium with 10% foetal bovine serum, 2 mM L-glutamine and 100 μg/mL penicillin/streptomycin. The medium was supplemented with 1% non-essential amino acids. The human breast tumour cell line MDA-MB-231 cells were maintained in Dulbecco’s modified Eagle’s medium (DMEM) with the addition of penicillin/streptomycin (100 µg/mL), 10% (v/v) foetal bovine serum and 2 mM L-glutamine (complete medium). Breast cancer cell line Hs578T and its isogenic subclone Hs578T(i)8 were a kind gift from Dr. Susan McDonnell, School of Chemical and Bioprocess Engineering, University College Dublin. SW-480 cells, triple-negative breast cancer Hs578T cells and invasive variant Hs578T8i cells were cultured in DMEM with GlutaMAX-I, with the same supplement in the absence of non-essential amino acids. HEK-293T cells (normal epithelial embryonic kidney cells) were cultured in DMEM with GlutaMAX-I in the absence of non-essential amino acids. The SW-480 cells were cultured in DMEM with GlutaMAX-I, with the same supplement in the absence of non-essential amino acids. All media contained 100 U/mL penicillin and 100 μg/mL streptomycin. The cells were seeded into pre-warmed complete medium (10 × 10^4 cells/mL) and maintained at a cell density of 2–19 × 10^5 cells /mL by the addition of fresh media. The cell number was monitored using a haemocytometer. Cells were maintained at 37 °C in 5% CO2 in a humidified incubator. […]
as §1

[3] = system: Hs578Ts(i)8 cells
Description: as §2, §1

SMILES | IC50 [1] | IC50 [2] | IC50 [3]
COc1ccc(/C=C\c2cc(OC)c(OC)c(OC)c2)cc1O [CA-4, combretastatin A-4, reference compound] | 0.043 µM | 0.008 µM | 0.02 µM
COc1ccc(C2C(F)C(=O)N2c2cc(OC)c(OC)c(OC)c2)cc1F (stereo not shown) [Compound 33, 3-Fluoro-4-(3-fluoro-4-methoxyphenyl)-1-(3,4,5-trimethoxyphenyl)azetidin-2-one] | 0.62 µM |  | 
